Entries after “also recorded” stand apart in the source; their conditions may differ.
How the values were obtained:
lhb (LbetaT2 cells) = assay: lhb transcription (RT-qPCR) in LbetaT2 cells; format: cell-based, mouse; conditions: for lhb transcript levels: 10 nM, n = 7 in duplicates, p<0.01 for WT, not significant for R31C; for lhb transcription versus WT GnRH: 10 nM R31C
Description: Figure 7 Effects of treatments on lhb transcription and LH secretion. […] After five hours treatment cells were lysed for RNA extraction (Trizol®). Mouse lhb levels were analyzed by quantitative real time RT-qPCR. Values are expressed as individual ratios on 18S and represented as fold induction on vehicle as means ± SEM, **p<0.01. This experience was conducted n = 7 times in duplicates. (B) LH concentrations from LbetaT2 cells culture media. Cells were starved overnight in serum-free DMEM and incubated with 10 nM WT, 10 nM R31C, 10 nM WT +10 nM R31C, or vehicle for 5 hours. LH levels were measured by a combined rat/mouse RIA. Values are expressed as individual values and as means ± SEM, *p<0.05, ***p<0.001. The experiment was conducted four times and each sample was assayed in duplicates.
LbetaT2 cells were grown at 10^6/well in 6-well plates and starved in serum-free DMEM 18 h before tests. […]
Lhb (murine LH beta subunit) transcript was quantified by real-time RT-PCR, using an ABI Step One Sequence Detector (Applied Biosystem, Foster City, CA) as previously described.

LH (LbetaT2 cells) = assay: LH secretion from LbetaT2 cells; format: cell-based, murine; conditions: for LH secretion over baseline: 10 nM, four experiments in duplicates, p<0.001 for WT, p = 0.042 for R31C; for LH secretion versus WT GnRH: 10 nM R31C
Description: Figure 7 Effects of treatments on lhb transcription and LH secretion. (A) LbetaT2 cells were starved overnight in serum-free DMEM and treated either by 10 nM WT, R31C, 10 nM WT +10 nM R31C peptides or vehicle. After five hours treatment cells were lysed for RNA extraction (Trizol®). Mouse lhb levels were analyzed by quantitative real time RT-qPCR. Values are expressed as individual ratios on 18S and represented as fold induction on vehicle as means ± SEM, **p<0.01. This experience was conducted n = 7 times in duplicates. (B) LH concentrations from LbetaT2 cells culture media. Cells were starved overnight in serum-free DMEM and incubated with 10 nM WT, 10 nM R31C, 10 nM WT +10 nM R31C, or vehicle for 5 hours. LH levels were measured by a combined rat/mouse RIA. Values are expressed as individual values and as means ± SEM, *p<0.05, ***p<0.001. The experiment was conducted four times and each sample was assayed in duplicates.
LbetaT2 cells were starved overnight in serum-free DMEM. The test day cells were exposed to 10 nM WT, R31C, the combination of 10 nM of each peptide or vehicle during five hours. Cell culture supernatants were collected and rapidly stored at −80°C. In cell culture media, LH concentration was measured using a previously described […] method with reagents supplied by Dr. Parlow (National Hormone and Peptide Program, Harbor-UCLA Medical Center, Torrance, CA). The minimum detectable LH concentration was 0.2 ng/ml, and the interassay coefficient of variation was less than 10%.

GNRHR = assay: SRE-coupled luciferase after pulsatile exposure (four 90 min-spaced pulses), HEK293T cells; format: cell-based, human; conditions: 5 minutes each, 10 nM WT, 10 nM R31C or 10+10 nM, harvested five hours after last pulse, three experiments, n = 8 replicates
Description: Supplementary file pone.0069616.s002.ppt: Figure S2 Luciferase activity after pulsatile exposure. HEK293T cells were transiently transfected with GNRHR and SRE-coupled luciferase reporter gene, and then exposed to four 90 min-spaced pulses of 10 nM WT, 10 nM […] and 10+10 nM WT+[…]. After 5 minutes exposure to each ligand, cells were washed, and a subsequent pulse was given 90 minutes after. Five hours after the last pulse, cells were harvested for luciferase assay. Luciferase activity arbitrary units obtained by luminometry (a.l.u.) are shown as ratio on beta-galactosidase activity by optical density (used as transfection efficiency internal control). This experience was conducted three times (n = 8 replicates for each experiment). (PPT) Click here for additional data file.

human GnRH-R [1] = molecular target: T1, human GnRH-R (Homo sapiens, UniProt P30968); assay: Inositol phosphate (IP) accumulation in COS-7 cells transfected with human GnRH-R; format: cell-based; parameters: host or cells: COS-7
T1 sequence (P30968 1-328): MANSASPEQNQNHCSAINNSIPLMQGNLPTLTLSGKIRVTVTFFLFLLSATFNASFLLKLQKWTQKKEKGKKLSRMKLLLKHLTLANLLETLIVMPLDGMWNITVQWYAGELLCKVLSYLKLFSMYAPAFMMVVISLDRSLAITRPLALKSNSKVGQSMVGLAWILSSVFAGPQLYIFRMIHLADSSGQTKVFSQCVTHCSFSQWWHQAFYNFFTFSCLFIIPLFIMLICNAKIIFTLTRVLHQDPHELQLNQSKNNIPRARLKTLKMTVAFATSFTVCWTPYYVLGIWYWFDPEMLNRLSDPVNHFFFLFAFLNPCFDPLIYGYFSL
Description: Figure 6 IP accumulation. (A) COS-7 cells were transiently transfected with human GnRH-R expression vector and washed before the addition of myo-[2-^3H]Inositol. […] This experience was conducted three times each in triplicate. (B) Representation of individual values of EC-50 (calculated with Arcsin “P” root transformation) from n = 3 dose-response experiments.
COS-7 cells were transiently transfected by electroporation with human GnRH-R DNA (10 µg/15 cm dish), seeded into 12-well plates and radiolabelled by overnight incubation with myo-[3H]Inositol (0.5 µCi/well, American Radiolabeled Chemicals, St Louis, Mo). […] Incubations were stopped by removal of the medium and cells were lysed by addition of formic acid (1 ml, 10 mM). IP were extracted from cell lysates using Dowex 1 X8-200 chromatography and counted using a liquid scintillation counter (Pack ard). EC-50 and Emax values were calculated using Graphpad Prism (GraphPad Software Inc).

human GnRH-R [2] = molecular target: T1, human GnRH-R; assay: Competition radioligand binding, 125I-[His5, D-Tyr6]-GnRH, transfected COS-7 cells
Description: Figure 2 Binding of WT and R31C GnRH to the GnRH receptor (GnRH-R). […] Data are the means of two experiments performed in triplicate.
The high affinity GnRH analog, [His^5, D-Tyr^6]-GnRH was radio-iodinated as previously described and purified using Sephadex chromatography. COS-7 cells were transiently transfected with a human GnRH-R DNA construct containing the human GnRH-RII carboxy-terminal to enhance expression using 6 µg of DNA and 30 µl FuGene HD (Promega Corporation, Madison, WI) per 10 cm dish and seeded into 12-well plates. […] Cells were washed with phosphate-buffered saline (2×1 ml) and lysed with NaOH (1 ml, 0.1 M). Cell-bound radioactivity was counted in a gamma counter and IC-50 values were calculated using Graphpad Prism (GraphPad Software Inc, San Diego).

[3] = 5 hours, listed as R31C peptide
[4] = R31C 10^−10 M to 10^−6 M in combination with WT GnRH at 10^−9 M

EC50 (human GnRH-R [1]; COS-7, human GnRH-R, 1 hour, n = 3 dose-response experiments each in triplicate, Arcsin "P" root transformation, spread not defined, read-out: EC-50, IP accumulation (Fig. 6B)) [nM] | impact of added R31C GnRH on IP generation with WT GnRH (human GnRH-R [1]; [4]) | IP activity / potency (human GnRH-R [1]; R31C GnRH versus WT) | less potent than WT GnRH, IP accumulation (human GnRH-R [1]; R31C GnRH versus WT GnRH, p<0.01) [fold] | IC50 (human GnRH-R [2]; COS-7 transfected with human GnRH-R construct, 125I-[His5, D-Tyr6]-GnRH, 4 h, 4°C, two experiments performed in duplicate) [nM] | impact of added R31C GnRH on receptor binding with WT GnRH (human GnRH-R [2]; [4]) | activity in receptor binding (human GnRH-R [2]; R31C GnRH) | affinity for GnRH-R lower than that of WT GnRH (human GnRH-R [2]; R31C GnRH versus WT GnRH, COS-7 cells) | SMILES | lhb transcript levels (lhb (LbetaT2 cells); 5 hours) | LH secretion over baseline (LH (LbetaT2 cells); 5 hours) | luciferase activity after pulsatile administration (GNRHR) | lhb transcription versus WT GnRH (lhb (LbetaT2 cells); 5 hours) | lhb transcription versus WT GnRH (lhb (LbetaT2 cells); [3]) | influence of R31C GnRH on stimulation of lhb transcription by WT GnRH (lhb (LbetaT2 cells); 10 nM WT + 10 nM R31C, 5 hours) | impact of added R31C GnRH on lhb transcription with WT GnRH (lhb (LbetaT2 cells); [4]) | maximal IP / agonism (human GnRH-R [1]; COS-7, R31C compared with WT) | LH secretion versus WT GnRH (LH (LbetaT2 cells); 5 hours) | LH secretion versus WT GnRH (LH (LbetaT2 cells); [3]) | influence of R31C GnRH on stimulation of LH secretion by WT GnRH (LH (LbetaT2 cells); 10 nM WT + 10 nM R31C, 5 hours) | impact of added R31C GnRH on LH secretion with WT GnRH (LH (LbetaT2 cells); [4])
– | – | – | – | – | – | – | – | CC(C)C[C@H](NC(=O)CNC(=O)[C@H](Cc1ccc(O)cc1)NC(=O)[C@H](CO)NC(=O)[C@H](Cc1c[nH]c2ccccc12)NC(=O)[C@H](Cc1c[nH]cn1)NC(=O)[C@@H]1CCC(=O)N1)C(=O)N[C@@H](CCCNC(=N)N)C(=O)N1CCC[C@H]1C(=O)NCC(N)=O [WT GnRH, reference compound] | significantly increased lhb transcript levels | strongly stimulated LH secretion over baseline | more potent than R31C GnRH | – | – | – | – | – | – | – | – | –
199 ± 75.9 | failed to have any impact | very low activity | > 100 | 850 | failed to have any impact | very low activity | more than 100 fold | CC(C)C[C@H](NC(=O)CNC(=O)[C@H](Cc1ccc(O)cc1)NC(=O)[C@H](CO)NC(=O)[C@H](Cc1c[nH]c2ccccc12)NC(=O)[C@H](Cc1c[nH]cn1)NC(=O)[C@@H]1CCC(=O)N1)C(=O)N[C@@H](CS)C(=O)N1CCC[C@H]1C(=O)NCC(N)=O [R31C GnRH] | did not significantly increase these levels over baseline | significantly stimulated LH secretion | – | very low activity | weaker responses | unable to influence the stimulation of lhb transcription | failed to have any impact | full agonist; also recorded: maximal IP generated by both ligands was the same; also recorded: able to elicit the same maximal stimulation | very low activity | weaker responses | unable to influence | failed to have any impact
